{"source": "ChEMBL document CHEMBL1134352", "about": "“Perspectives in animal health: old targets and new opportunities” (J Med Chem, 2001)", "key": {"Felis catus": {"tested_on": "Felis catus", "assay": "Percent reduction of fleas on cats by topical application for 1 week", "assay_type": "functional"}, "Canis familiaris [1]": {"organism": "Canis familiaris", "assay": "Flea efficacy in dog"}, "[2]": {"molecular_target": "AF2 neuropeptide receptor", "assay": "Compound was evaluated for inhibition of binding to Ascaris suum AF2 neuropeptide receptor"}, "Equus caballus": {"tested_on": "Equus caballus", "assay": "Compound was evaluated for gastric acid suppression on intravenous administration of a single dose up to 7 hr", "assay_type": "functional, Stomach"}, "[3]": {"assay": "Oral bioavailability in dog", "assay_type": "ADME, organism-based, Canis lupus familiaris", "settings": "in vivo"}, "Mus musculus": {"tested_on": "Mus musculus", "assay": "Lethality in mouse, by administering the compound at 200 mg/kg; decreased toxicity", "assay_type": "functional, organism-based", "design": "dose 200 mg/kg"}, "Canis familiaris [4]": {"organism": "Canis familiaris", "assay": "Minimum dose that cause toxicity in dog", "assay_type": "functional, Canis lupus familiaris"}, "Canis familiaris [5]": {"tested_on": "Canis familiaris", "assay": "In vivo reduction of flea infestation was determined after an oral administration of 15 mg/kg in dog challenged with 100 fleas at day 8", "assay_type": "functional, Canis lupus familiaris"}, "Canis familiaris [6]": {"tested_on": "Canis familiaris", "assay": "In vivo reduction of flea infestation was determined after an oral administration of 15 mg/kg in dog challenged with 100 fleas at day 6", "assay_type": "functional, Canis lupus familiaris"}, "Canis familiaris [7]": {"tested_on": "Canis familiaris", "assay": "In vivo reduction of flea infestation was determined after an oral administration of 15 mg/kg in dog challenged with 100 fleas at day 4", "assay_type": "functional, Canis lupus familiaris"}, "[8]": {"assay": "Lethal concentration of compound was determined against fleas", "settings": "pulicinae"}, "Canis familiaris [9]": {"tested_on": "Canis familiaris", "assay": "In vivo reduction of flea infestation was determined after an oral administration of 15 mg/kg in dog challenged with 100 fleas at day 0", "assay_type": "functional, Canis lupus familiaris"}, "[10]": {"assay": "Acute toxicity in mice was determined", "assay_type": "organism-based", "settings": "mouse, in vivo"}, "[11]": {"assay": "Lethal dose in dog was determined", "assay_type": "toxicity, organism-based, Canis lupus familiaris", "settings": "in vivo"}, "[12]": {"assay": "Lethal dose in mouse was determined", "assay_type": "toxicity, organism-based", "settings": "in vivo"}, "Canis familiaris [13]": {"organism": "Canis familiaris", "assay": "Flea efficacy in dog", "assay_type": "functional, Canis lupus familiaris"}}}
{"smiles": "C/C=C(\\C)C(=O)O[C@H]1C[C@@H](OC(C)=O)[C@@]2(C(=O)OC)CO[C@H]3[C@@H](O)[C@@](C)([C@]45O[C@@]4(C)[C@@H]4C[C@H]5O[C@@H]5OC=C[C@@]54O)[C@H]4[C@]1(CO[C@]4(O)C(=O)OC)[C@@H]32", "note": "[AZADIRACHTIN A]", "values": [{"measurement": "Reduction", "setting": "Felis catus", "result": 53, "unit": "%"}]}
{"smiles": "C=C(C)[C@H]1C(=O)c2c3c(cc4c5c(n1c24)[C@@]1(C)C(CC[C@H]2[C@](C)(/C=C/C=C(\\C)C(=O)N4CCN(S(C)(=O)=O)CC4)[C@@H](O)CC[C@@]21C)C5)C1=CC(C)(C)OC(C)(C)C1[C@@H]3O", "note": "(some centres not stated) [NODULISPORAMIDE]", "values": [{"measurement": "Efficacy", "setting": "Canis familiaris [1]", "result": 0.01, "unit": "µg/mL"}]}
{"smiles": "N=c1sc(-c2ccccn2)nn1-c1c(Cl)cc(Cl)cc1Cl", "values": [{"measurement": "IC50", "setting": "[2]", "result": 3000, "unit": "nM"}]}
{"smiles": "COc1ccc2[nH]c([S+]([O-])Cc3ncc(C)c(OC)c3C)nc2c1", "note": "(configuration not stated) [OMEPRAZOLE]", "values": [{"measurement": "Inhibition", "setting": "Equus caballus", "result": ">90", "unit": "%"}]}
{"smiles": "CC(C(=O)O)c1ccc2c(c1)[nH]c1ccc(Cl)cc12", "note": "(configuration not stated) [CARPROFEN]", "values": [{"measurement": "bioavailability", "setting": "[3]", "result": "~90", "unit": "%"}]}
{"smiles": "CC[C@@]12C(=O)N(C)[C@@]3(CCC(C)(C)[C@]4(CNc5c4ccc4c5OC=CC(C)(C)O4)C3)CN1CC[C@@]2(C)O", "values": [{"measurement": "Lethality", "setting": "Mus musculus", "result": "decreased toxicity"}]}
{"smiles": "C=C(C)[C@H]1C(=O)c2c3c(cc4c5c(n1c24)[C@@]1(C)C(CC[C@H]2[C@](C)(/C=C/C=C(\\C)C(=O)O)[C@@H](O)CC[C@@]21C)C5)C1=CC(C)(C)OC(C)(C)C1[C@@H]3O", "note": "(some centres not stated) [NOD ACID A]", "values": [{"measurement": "Dose", "setting": "Canis familiaris [4]", "result": 6, "unit": "µg/kg"}, {"measurement": "Efficacy", "setting": "Canis familiaris [5]", "result": 0, "unit": "%"}, {"measurement": "Efficacy", "setting": "Canis familiaris [6]", "result": 51, "unit": "%"}, {"measurement": "Efficacy", "setting": "Canis familiaris [7]", "result": 97, "unit": "%"}, {"measurement": "LC50", "setting": "[8]", "result": 0.68, "unit": "µg/mL"}, {"measurement": "Efficacy", "setting": "Canis familiaris [9]", "result": 99, "unit": "%"}]}
{"smiles": "CO[C@H]1C[C@H](O[C@H]2[C@H](C)O[C@@H](OC3/C(C)=C/CC4C[C@@H](C[C@]5(C=C[C@H](C)[C@@H](C(C)C)O5)O4)OC(=O)[C@@H]4C=C(C)[C@@H](O)[C@H]5OC/C(=C\\C=C\\[C@@H]3C)[C@]54O)C[C@@H]2OC)O[C@@H](C)[C@@H]1O", "note": "(some centres not stated)", "values": [{"measurement": "LD50", "setting": "[10]", "result": 160, "unit": "mg/kg"}]}
{"smiles": "CN1C(=O)[C@]23CC4CC(C)(C)[C@@]5(C[C@@]41CN2CC[C@@]3(C)O)C(=O)Nc1c5ccc2c1OC=CC(C)(C)O2", "note": "(some centres not stated)", "values": [{"measurement": "LD50", "setting": "[11]", "result": 0.5, "unit": "mg/kg"}, {"measurement": "LD50", "setting": "[12]", "result": "< 15", "unit": "mg/kg"}]}
{"smiles": "C=C(C)[C@H]1C(=O)c2c3c(cc4c5c(n1c24)[C@@]1(C)C(CC[C@H]2[C@](C)(/C=C/C=C(\\C)C(=O)N(C)CC)[C@@H](O)CC[C@@]21C)C5)C1=CC(C)(C)OC(C)(C)C1[C@@H]3O", "note": "(some centres not stated)", "values": [{"measurement": "Efficacy", "setting": "Canis familiaris [13]", "result": 0.1, "unit": "µg/mL"}]}
{"smiles": "N#Cc1ccnc(-c2nn(-c3c(Cl)cc(C(F)(F)F)cc3Cl)c(=N)s2)c1", "values": [{"measurement": "IC50", "setting": "[2]", "result": 10, "unit": "nM"}]}
